For series [1] the following is noted: metabolite ID, peak area of substrate or metabolite.
The conditions of series [2]: metabolite ID, peak area of substrate or metabolite. This is another data set of the same source.
The test system of series [3] is primary peritoneal mouse macrophages (PMM). Put plainly: cells. The note with it: Macrophage, read-out: PMM pIC50 (converted).
A short description of series [4]: in vitro. As to conditions: human, microsomes, intrinsic in vitro clearance, liver microsomes. For orientation: Liver microsomes are a subcellular fraction often used to study metabolism.
Series [5] is described as follows: in vitro. The note with it: mouse, microsomes, pH 7.4, Microsome Clint Mouse, intrinsic in vitro clearance, liver microsomes.
A further series is described as follows: physchem. As to conditions: HPLC, Ascentis Express RP Amide column, pH 7.4, elog D, HPLC measured log D, pH 7.4.
Series [6] in a line: in vitro. The note with it: human, PMA-differentiated THP-1 cells.
Series [7] relates to Leishmania infantum MHOM/MA(BE)/67/ITMAP263 intracellular amastigotes. Put plainly: microbe, parasite or virus in culture. As to conditions: Macrophage, in Mus musculus, read-out: L. inf. pIC50, intracellular amastigotes in PMM (converted), geometric mean of a minimum of two experiments ± standard error.
Series [8] has as its system Leishmania infantum (MHOM/MA/67/ITMAP-263) intracellular amastigotes in THP-1. Put plainly: microbe, parasite or virus in culture. The note with it: THP-1, 120 h, read-out: Intracellular activity pIC50 L. inf. in THP-1 (converted).
A further series has as its system T. b. brucei (Squib-427). Put plainly: microbe, parasite or virus in culture. As to conditions: Trypanosoma brucei, RHODESIENSE
The subject of series [9] is Leishmania infantum MHOM/MA(BE)/67/ITMAP263 intracellular amastigotes. As to conditions: for L. inf. pIC50: intracellular amastigotes in PMM, geometric mean of a minimum of two experiments ± standard error.
Series [10] deals with primary peritoneal mouse macrophages (PMM). The note with it: for PMM pIC50: cytotoxicity to PMM, geometric mean of a minimum of two experiments ± standard error.
The conditions of series [11]: human liver microsomes.
The conditions of series [12]: mouse liver microsomes.
The conditions of series [13]: pH 7.4.
Series [14] has as its system Trypanosoma cruzi, Tulahuen CL2, beta-galactosidase strain. As to conditions: read-out: T. cruzi Tulahuen C4 (LacZ) IC50.
In the next series the test system is MRC-5SV2 cells. Put plainly: Cytotoxicity assay on MRC-5SV2 cells (resazurin). As to conditions: human, 3 days. (Alamar Blue is a resazurin reagent that responds to reducing activity.)
Series [15] deals with primary peritoneal mouse macrophages (PMM). Kind of series: Cytotoxicity to PMM (microscopic scoring within susceptibility assay). As to conditions: Swiss, mouse.
Series [16] deals with Leishmania infantum (MHOM/MA/67/ITMAP-263) intracellular amastigotes in THP-1. As to conditions: THP-1 host cells, 120 hours.
Another series concerns THP-1 cells. As to conditions: 120 hours, Alamar Blue.

Like-named read-outs stand apart in the source and are kept apart here.

In the case of `COc1ccc(C(=O)NC2COC2)cc1S(=O)(=O)N(Cc1ccc(F)cc1)Cc1ccc(F)cc1` [Compound 23], in series [1], the “Area% Mouse” value worked out at 89.1%. For the same molecule, the “Area% Human” value in series [2] came to 84.9%. Also, the results for the IC50 in [3], in series [7] and in series [8] were greater than 64.6 µM, 0.794 µM and 8.51 µM, respectively. The microsomal CLint – broadly, a measure of how fast metabolising enzymes remove a compound, apart from limits set by blood flow – at 0.5 μM in the series “in vitro [4]” (pH 7.4, Microsome Clint Human) was 178 µL/min/mg; in “in vitro [5]” it was 395 µL/min/mg. In addition, in the series “physchem”, the chromatographic logD – broadly, lipophilicity estimated from chromatographic retention – is 4. This molecule also registered an IC50 at 120 h in the series “in vitro [6]” greater than 64.6 µM.
As for `COc1ccc(OC)c(S(=O)(=O)N(C)Cc2ccc(F)cc2)c1` [Compound 37], the “Area% Mouse” value in series [1] came out at 76.1%. Also, the “Area% Human” value in series [2] is on record as 22.5%. Besides, the IC50 was greater than 64.6 µM in series [3] and 11.7 µM in [7]. The molecule further came in with a microsomal CLint at 0.5 μM in the series “in vitro [4]” (pH 7.4, Microsome Clint,u Human, Table 2) of 414 µL/min/mg. In addition, in the series “physchem”, the chromatographic logD was 3.7.
In the series with T. b. brucei (Squib-427), `Cc1ccc(C(=O)Nc2ccc(S(=O)(=O)O)c3cc(S(=O)(=O)O)cc(S(=O)(=O)O)c23)cc1NC(=O)c1cccc(NC(=O)Nc2cccc(C(=O)Nc3cc(C(=O)Nc4ccc(S(=O)(=O)O)c5cc(S(=O)(=O)O)cc(S(=O)(=O)O)c45)ccc3C)c2)c1` [Suramin] yielded an IC50 of roughly 0.05 µM.
On to `CC[C@H](Cc1ccccc1)[S+]([O-])c1ccccc1OC` (stereo partly drawn) [DNDI0003362002], for which the “L. Inf. pIC50” value in series [9] (from L. infantum intracellular amastigote IC50) is 4.45. The IC50 was 35.3 µM in series [9] (read-out: L. infantum MHOM/MA(BE)/67/ITMAP263 intracellular amastigotes IC50), 30.8 µM in [14] and greater than 64 µM in series [15]. For the same molecule, in series [10] (PMM IC50 / L. infantum IC50), the “SI (vs PMM)” value is reported as 2. For the same molecule, the “HLM CLint” value in series [11] was determined as 390 µL/min/mg. For the same molecule, the “MLM CLint” value in series [12] was 3623 µL/min/mg. In [13], this molecule displayed an eLogD of 3.7. Further, in the series on MRC-5SV2 cells, the CC50 (in general, the concentration giving 50% cytotoxicity) was greater than 64 µM.
As for `COc1ccc(OC)c(S(=O)(=O)N(Cc2ccc(F)cc2)Cc2oc(C)nc2C)c1` [SI51], in [9], the “L. inf. pIC50” value came to 5.63±0.04. Also, the “PMM pIC50” value in series [10] was less than 4.19. For the same molecule, the “Intracellular activity pIC50 L. inf. in THP-1” value in series [16] came out at 4.51±0.03. The “pIC50 Cytotoxicity THP-1” value in the series with THP-1 cells was less than 4.19.
For `COc1ccc(S(C)(=O)=O)cc1S(=O)(=O)N(Cc1ccccc1)CC(C)(C)C` [SI52], in series [9], the “L. inf. pIC50” value came to 5.56±0.28. Further, the “PMM pIC50” value in series [10] is less than 4.19. In addition, in series [16], the “Intracellular activity pIC50 L. inf. in THP-1” value came out at 4.32±0.01. For the same molecule, the “pIC50 Cytotoxicity THP-1” value with THP-1 cells was less than 4.19.

Values taken from article PMC8126888 (RSC Medicinal Chemistry, 2020).
